{
  "source": "ChEMBL document CHEMBL1147242",
  "about": "“Briarlides, briarane diterpenes from a gorgonian Briareum sp” (J Nat Prod, 2003)",
  "key": {"[1]": {"test": "Cytotoxicity against african green monkey Vero cells", "format": "cell-based", "conditions": "chlorocebus sabaeus"}, "[2]": {"test": "Cytotoxicity against MDCK cells", "format": "cell-based, Canis lupus familiaris", "conditions": "dog"}},
  "data": [
    {"smiles": "CC(=O)O[C@@H]1[C@@H](OC(C)=O)/C(C)=C\\[C@@H]2OC(=O)[C@]3(C)O[C@]23[C@H](OC(C)=O)[C@H]2[C@](C)(O)[C@H](OC(C)=O)C=C[C@]2(C)[C@H]1OC(C)=O", "note": "[BRIARLIDE A]", "values": [
      {"measurement": "CC50", "setting": "[1]", "value": 2.07, "unit": "µg/mL"},
      {"measurement": "CC50", "setting": "[2]", "value": 4.74, "unit": "µg/mL"}
    ]},
    {"smiles": "CC(=O)O[C@@H]1[C@H]2[C@](C)(O)[C@H](OC(C)=O)C=C[C@]2(C)[C@@H](O)[C@H](O)[C@@H](OC(C)=O)/C(C)=C\\[C@@H]2OC(=O)[C@]3(C)O[C@@]213", "note": "[BRIARLIDE C]", "values": [
      {"measurement": "CC50", "setting": "[1]", "value": 62.1, "unit": "µg/mL"},
      {"measurement": "CC50", "setting": "[2]", "value": 38.6, "unit": "µg/mL"}
    ]},
    {"smiles": "CCCCCC(=O)O[C@H]1/C(C)=C\\[C@@H]2OC(=O)[C@]3(C)O[C@]23[C@H](OC(C)=O)[C@H]2[C@](C)(O)[C@H](OC(C)=O)C=C[C@]2(C)[C@@H](OC(C)=O)[C@@H]1O", "note": "[BRIARLIDE E]", "values": [
      {"measurement": "CC50", "setting": "[1]", "value": 4.24, "unit": "µg/mL"},
      {"measurement": "CC50", "setting": "[2]", "value": 4.91, "unit": "µg/mL"}
    ]},
    {"smiles": "CCCCCCCC(=O)O[C@@H]1[C@@H](O)/C(C)=C\\[C@@H]2OC(=O)[C@]3(C)O[C@]23[C@H](OC(C)=O)[C@H]2[C@](C)(O)[C@H](OC(C)=O)C=C[C@]2(C)[C@H]1OC(C)=O", "note": "[BRIARLIDE F]", "values": [
      {"measurement": "CC50", "setting": "[1]", "value": 4.26, "unit": "µg/mL"},
      {"measurement": "CC50", "setting": "[2]", "value": 3.49, "unit": "µg/mL"}
    ]},
    {"smiles": "CC(=O)O[C@@H]1[C@H]2[C@](C)(O)[C@H](O)C=C[C@]2(C)[C@@H](O)[C@H](OC(C)=O)C/C(C)=C\\[C@@H]2OC(=O)[C@]3(C)O[C@@]213", "note": "[BRIARLIDE H]", "values": [
      {"measurement": "CC50", "setting": "[1]", "value": "> 100", "unit": "µg/mL"},
      {"measurement": "CC50", "setting": "[2]", "value": "> 100", "unit": "µg/mL"}
    ]},
    {"smiles": "CCCCCCCC(=O)O[C@H]1/C(C)=C\\[C@@H]2OC(=O)[C@]3(C)O[C@]23[C@H](OC(C)=O)[C@H]2[C@](C)(O)[C@H](OC(C)=O)C=C[C@]2(C)[C@@H](OC(C)=O)[C@@H]1O", "note": "[BRIARLIDE D]", "values": [
      {"measurement": "CC50", "setting": "[1]", "value": 2.26, "unit": "µg/mL"},
      {"measurement": "CC50", "setting": "[2]", "value": 2.49, "unit": "µg/mL"}
    ]},
    {"smiles": "CC(=O)O[C@@H]1[C@H]2[C@](C)(O)[C@H](OC(C)=O)C=C[C@]2(C)[C@@H](OC(C)=O)[C@H](OC(C)=O)C/C(C)=C\\[C@@H]2OC(=O)[C@]3(C)O[C@@]213", "note": "[BRIARLIDE G]", "values": [
      {"measurement": "CC50", "setting": "[1]", "value": 22.2, "unit": "µg/mL"},
      {"measurement": "CC50", "setting": "[2]", "value": 67.1, "unit": "µg/mL"}
    ]},
    {"smiles": "CC(=O)O[C@@H]1[C@@H](OC(C)=O)/C(C)=C\\[C@@H]2OC(=O)[C@]3(C)O[C@]23[C@H](OC(C)=O)[C@H]2[C@](C)(O)[C@H](O)C=C[C@]2(C)[C@H]1OC(C)=O", "note": "[VIOLIDE B]", "values": [
      {"measurement": "CC50", "setting": "[1]", "value": 9.8, "unit": "µg/mL"},
      {"measurement": "CC50", "setting": "[2]", "value": 28.8, "unit": "µg/mL"}
    ]},
    {"smiles": "CC(=O)O[C@@H]1[C@H]2[C@](C)(O)[C@H](OC(C)=O)C=C[C@]2(C)[C@@H](OC(C)=O)[C@H](O)[C@@H](OC(C)=O)/C(C)=C\\[C@@H]2OC(=O)[C@]3(C)O[C@@]213", "note": "[BRIARLIDE B]", "values": [
      {"measurement": "CC50", "setting": "[1]", "value": 18.9, "unit": "µg/mL"},
      {"measurement": "CC50", "setting": "[2]", "value": 15.4, "unit": "µg/mL"}
    ]}
  ]
}
